Reference: patent US10239830B2, “Benzenesulfonamide upregulators of NPC1 for Neimann-Pick disease and other lysosomal storage disorders” (ICAHN SCHOOL OF MEDICINE AT MOUNT SINAI, priority 2015, dated 2019)

What was measured:
[1] = molecular target: T1, Renilla Enzyme (Renilla reniformis, UniProt P27652); assay: Biochemical Renilla Luciferase Counter assay
T1 sequence (P27652 1-311): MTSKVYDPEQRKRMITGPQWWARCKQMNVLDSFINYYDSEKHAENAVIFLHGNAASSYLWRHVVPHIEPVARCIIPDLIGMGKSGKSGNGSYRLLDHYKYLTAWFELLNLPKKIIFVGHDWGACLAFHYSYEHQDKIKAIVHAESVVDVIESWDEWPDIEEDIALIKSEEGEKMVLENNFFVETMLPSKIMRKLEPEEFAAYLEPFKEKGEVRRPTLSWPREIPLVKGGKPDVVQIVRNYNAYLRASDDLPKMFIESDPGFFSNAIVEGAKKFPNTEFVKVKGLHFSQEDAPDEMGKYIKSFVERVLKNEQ
Description: Biochemical Renilla Luciferase Counter assay. An orthogonal assay was run to exclude any compounds that promoted renilla luciferase signal by stabilizing the renilla protein. Briefly, 3 μL of 0.01 mM D-Luciferin and 0.01 mM ATP was dispensed into a 1536 well white, solid bottom plate. Through pinning, 23 nL of compound was added; PTC124 (3-[5-(2-Fluorophenyl)-1,2,4-oxadiazol-3-yl]benzoic acid) served as the control. After a 10 min incubation at room temperature, 1 μL of Luciferase was added, after which the plate was immediately read on the ViewLux for a luminescent read-out.

[2] = molecular target: NPC1 promoter; assay: Confirmation Assay of NPC1 Promoter Activators: Renilla Luciferase (Huh7); format: cell-based, human; conditions: 24 hours
Description: Confirmation Assay of NPC1 Promoter Activators: Renilla Luciferase. The confirmation assay was carried out using an assay in which the NPC1 promoter drives the expression of a different luciferase protein from the one used in the primary screen. The NPC1 promoter was cloned in front of the renilla luciferase reporter gene. NPC1 promoter activation results in renilla luciferase expression. This vector was used to generate Huh7 cell lines stably expressing the NPC1-renilla luciferase vector. These cells were propagated and maintained in medium containing RPMI-1640 supplemented with 10% FBS, 2 mM L-glutamine, and 50 μg/mL penicillin/streptomycin. Cells were plated for assays in OPTI-MEM I reduced-serum medium supplemented with 10% FBS at 1,500 cells/well in 5 μL in 1,536-well white opaque plates and then 23 nL/well of compound in DMSO solution were added through pin transfer. The assay plates were incubated at 37° C. for 24 hours. The Amplite luciferase reporter gene assay kit was purchased from ABD Bioquest and prepared/stored according to manufacturer's recommendations. Luminescence signal was measured in a ViewLux plate reader (Perkin Elmer) after a 10 minute incubation at room temperature.

[3] = tested on: NPC1 patient cell fibroblasts; assay: Filipin Staining Assay to Detect Free Cholesterol Accumulation in NPC Cells; format: cell-based, human; conditions: filipin fluorescence relative to untreated cells
Description: Filipin Staining Assay to Detect Free Cholesterol Accumulation in NPC Cells. Compounds were evaluated for their effect on the NPC1 cellular phenotype by staining treated NPC1 patient cell fibroblasts with filipin, which recognizes free unesterified cholesterol. Compounds that upregulate the NPC1 promoter were expected to reduce the filipin staining in treated NPC1 fibroblasts compared to untreated NPC1 fibroblasts, indicating clearance of unesterified cholesterol. Conversely, inhibitors of the NPC1 promoter were expected to increase filipin staining in wild-type fibroblasts, thus indicating the emergence of an NPC-like phenotype. Briefly, cells were grown in lipoprotein-deficient medium for 3-4 days, and then the medium was replaced and supplemented with test compound plus 50 μg/mL low-density lipoprotein (LDL). After 24-48 hours, cells were stained with filipin and scored under the 40× magnification filter using the integrated morphometry function in the Metavue program (Molecular Devices). Test compounds that decreased the intensity of filipin fluorescence to less than 50% of untreated cells are considered of particular interest.

[4] = tested on: NPC3 cells; assay: Lactosyl Ceramide (BODIPY-LacCer) staining to monitor sphingolipid transport; format: cell-based, human; conditions: for correction of lipid transport block (accumulation of Bodipy LacCer probe to the Golgi): compared to untreated NPC3 cells
Description: Lactosyl Ceramide staining to monitor sphingolipid transport in NPC cells. The effect of each compound on the sphingolipid transport defect seen in NPC1 fibroblasts was assessed in cells treated with compound for 48-72 hours using the fluorescent probe BODIPY-lactosylceramide (LacCer). […] This mislocalization can be corrected and Golgi localization restored by expression of Wt NPC1 protein or Rab9, thus providing a dynamic view of the endocytic transport pathway. Cells were incubated with 5 μM BODIPY-LacCer/BSA for 45 min at 37° C. in culture medium containing 1% FBS, washed, and further incubated for 1 h at 37° C. in medium containing 1% FBS. Fluorescent lipid present at the plasma membrane was removed by back-exchange with 5% fatty acid-free BSA. Cells were fixed with 3% paraformaldehyde for 20 min at RT and then visualized on a Nikon Eclipse microscope fitted with a charge-coupled-device camera. Images were acquired with MetaVue software and then deconvoluted using AutoDeblur software.
Unlike the VTB assay above that detects the static levels of lipid storage, the Bodipy LacCer probe allows for detection of the recovery/correction of lipid transport from the plasma membrane to the Golgi apparatus as described above. This dynamic assay can be used to determine the level of correction various compounds have on the NPC transport block.

[5] = molecular target: Rab9 promoter; assay: qHTS of Rab9 Promoter-Luciferase Reporter Gene Assay (firefly, Huh7); format: cell-based, human; conditions: 24 hours
Description: qHTS of Rab9 Promoter-Luciferase Reporter Gene Assay. For the primary screen, a promoter assay was developed by engineering a vector using approximately 1.5 kb of the Rab9 promoter to drive the expression of the firefly luciferase reporter gene. Thus, Rab9 promoter activation results in luciferase expression. This vector was used to generate Huh7 cell lines stably expressing the Rab9-luciferase vector. […] Cells were plated for assays in OPTI-MEM I reduced-serum medium supplemented with 10% FBS at 1,500 cells/well in 5 μL in 1,536-well white opaque plates with 23 nL/well of test compound in DMSO solution. The assay plates were incubated at 37° C. for 24 hours, after which 3 μL/well BriteLite plus luciferase detection reagent mixture (Perkin Elmer) was added. Luminescence signal was measured in a ViewLux plate reader (Perkin Elmer) after a 10 minute incubation at room temperature.

[6] = molecular target: NPC1 promoter; assay: qHTS of NPC1 Promoter-Luciferase Reporter Gene Assay (firefly, Huh7); format: cell-based, human; conditions: 24 hours
Description: qHTS of NPC1 Promoter-Luciferase Reporter Gene Assay. For the second primary screen, a promoter assay was developed by engineering a vector using approximately 1.5 kb of the NPC1 promoter to drive the expression of the firefly luciferase reporter gene. Thus, NPC1 promoter activation results in luciferase expression. This vector was used to generate Huh7 cell lines stably expressing the NPC1-luciferase vector. […] Cells were plated for assays in OPTI-MEM I reduced-serum medium supplemented with 10% FBS at 1,500 cells/well in 5 μL in 1,536-well white opaque plates with 23 nL/well of test compound in DMSO solution. The assay plates were incubated at 37° C. for 24 hours, after which 3 μL/well BriteLite plus luciferase detection reagent mixture (Perkin Elmer) was added. Luminescence signal was measured in a ViewLux plate reader (Perkin Elmer) after a 10 minute incubation at room temperature.

[7] = tested on: Wild type (Wt) cells; assay: VTB-GL-3 assay, wild type cells; format: cell-based, human; conditions: Wt cells treated for 3 days

Renilla Enzyme IC50 [1]	EC50 [2] [nM]	NPC1-renilla Eff. [2] [%]	SMILES	% storage at 1 μM [3] [%]	percent Golgi location ([4]; 1 μM)	correction of lipid transport block (accumulation of Bodipy LacCer probe to the Golgi) [4]	EC50 [5] [µM]	Rab9 Eff. [5] [%]	% storage at 0.1 μM [3] [%]	EC50 [6] [µM]	NPC1 Eff. [6]	effect on storage of lipid material (VTB staining) in Wt cells [7]	percent Golgi location ([4]; 10 or 100 nM)
Inactive	2700	80	COc1ccc(NC(=O)C23CC4CC(CC(C4)C2)C3)cc1S(=O)(=O)Nc1ccc(Br)cc1 [Example 47]	33	–	–	–	–	–	–	–	–	–
–	–	–	CC(=O)c1c(C)[nH]c(C(=O)Nc2cccc(S(=O)(=O)N(C)C)c2)c1C [Example 1]	22	reduces percent Golgi location by a statistically significant amount	correction of their block	6.1	148	40	6.6 to 7.7	68-83%	no effect on Wt cells	–
–	–	–	COc1ccc(NC(=O)c2[nH]c(C)c(C(C)=O)c2C)cc1S(=O)(=O)Nc1ccc(Br)cc1 [Example 36]	25	–	correction of their block	–	–	50	0.7	150%	no effect on Wt cells	reduces percent Golgi location by a statistically significant amount
